Experiment [1] relates to Staphylococcus aureus SA1199B. Format: cell-based. As to the method:
(§1) The MIC's were determined using a standard broth micro-dilution assay.

Experiment [2] concerns Entercoccus faecium 180-1. Kind of experiment: broth micro-dilution MIC. The experiment is classed as cell-based. How it is done: as §1
A further experiment has as its system Entercoccus faecium 276. Kind of experiment: broth micro-dilution MIC. Format: cell-based. How it is done: as §1
In general terms: Broth dilution looks for growth in wells or tubes with falling amounts of substance.

For experiment [3], the system named is Staphylococcus aureus 446. In words: broth micro-dilution MIC. Format: cell-based. As to the method: as §1
In experiment [4] the test system is Staphylococcus aureus 447. Kind of experiment: broth micro-dilution MIC. Format: cell-based. As to the method:
as §1

In experiment [5] the test system is Staphylococcus aureus 489. In words: broth micro-dilution MIC. Format: cell-based. How it is done:
as §1

The test system of experiment [6] is Staphylococcus aureus 491. Kind of experiment: broth micro-dilution MIC. The experiment is classed as cell-based. How it is done:
as §1

The subject of experiment [7] is Staphylococcus aureus SA1199A. In words: broth micro-dilution MIC. Format: cell-based. How it is done: as §1
Experiment [8] relates to Staphylococcus aureus SA1199. In words: broth micro-dilution MIC. Format: cell-based. As to the method: as §1
For experiment [9], the system named is Staphylococcus aureus X400. Kind of experiment: broth micro-dilution MIC. The experiment is classed as cell-based. As to the method:
as §1

Experiment [10] deals with Staphylococcus aureus X778. In words: broth micro-dilution MIC. Format: cell-based. As to the method: as §1
In experiment [11] the test system is Streptococcus pyogenes C203. Kind of experiment: broth micro-dilution MIC. Format: cell-based. As to the method: as §1
Another experiment deals with Entercoccus faecium 180. Kind of experiment: broth micro-dilution MIC. Format: cell-based. Conditions: Entercoccus faecium 180. How it is done: (§2) The formula I compounds have in vitro and in vivo activity against Gram-positive pathogenic bacteria. The MIC's were determined using a standard broth micro-dilution assay.
A further experiment relates to Entercoccus faecium 2041. In words: broth micro-dilution MIC. Format: cell-based. The settings on record: Entercoccus faecium 2041. As to the method: as §2
Experiment [12] deals with Enterococcus gallinarum 245. In words: broth micro-dilution MIC. Conditions: Enterococcus gallinarum 245. Format: cell-based. As to the method: as §2
A further experiment concerns Escherichia coli EC14. In words: broth micro-dilution MIC. Format: cell-based. How it is done: as §2
For experiment [13], the system named is Staphylococcus epidermidis 270. In words: broth micro-dilution MIC. Format: cell-based. How it is done: as §2
In experiment [14] the test system is Staphylococcus haemolyticus 105. Kind of experiment: broth micro-dilution MIC. Format: cell-based. How it is done: as §2
The subject of experiment [15] is Staphylococcus haemolyticus 415. In words: broth micro-dilution MIC. The experiment is classed as cell-based. As to the method: as §2
The test system of experiment [16] is Streptococcus pneumoniae P1. Kind of experiment: broth micro-dilution MIC. Format: cell-based. As to the method: as §2
Experiment [17] relates to vancomycin-resistant enterococci. In words: broth micro-dilution, mean geometric MIC. Format: cell-based, Enterococcus faecium and Enterococcus faecalis. The settings on record: enterococci, 24-hour incubation.
Experiment [18] deals with vancomycin-susceptible enterococci. Kind of experiment: broth micro-dilution, mean geometric MIC. The experiment is classed as cell-based, Enterococcus faecium and Enterococcus faecalis. The settings on record: enterococci, 24-hour incubation.
The test system of experiment [19] is Staphylococcus aureus S13E. The experiment is classed as cell-based. How it is done: as §1
Experiment [20] relates to Haemophilus influenzae RD. Kind of experiment: broth micro-dilution MIC. Conditions: Haemophilus influenzae RD. Format: cell-based. As to the method:
as §2

≈ marks a conversion by molar mass, not a printed value.

`CNC(CC(C)C)C(=O)NC1C(=O)NC(CC(N)=O)C(=O)NC2C(=O)NC3C(=O)NC(C(=O)NC(C(=O)O)c4cc(O)cc(O)c4-c4cc3ccc4O)C(OC3CC(C)(N)C(O)C(C)O3)c3ccc(c(Cl)c3)Oc3cc2cc(c3OC2OC(CO)C(O)C(O)C2OC2CC(C)(NCc3ccc([N+](=O)[O-])cc3)C(O)C(C)O2)Oc2ccc(cc2Cl)C1O` (centres unmarked) [Compound 78]: the MIC in experiment [1] is at most 0.06 µg/mL; in experiment [2] it was at most 0.06 µg/mL; in the experiment on Entercoccus faecium 276, 0.125 µg/mL (≈ 0.0724 µM); in experiment [3], 2 µg/mL (≈ 1.16 µM); in [4] it was at most 0.06 µg/mL; in experiment [5], at most 0.06 µg/mL. Also, the MIC in experiment [6] is 0.25 µg/mL (≈ 0.145 µM); in experiment [7] it was at most 0.06 µg/mL; in experiment [8] it was 0.125 µg/mL (≈ 0.0724 µM); in experiment [9], at most 0.06 µg/mL; in [10], at most 0.06 µg/mL; in experiment [11], at most 0.06 µg/mL. The MIC against Entercoccus faecium 180 was 1 µg/mL (≈ 0.579 µM); against Entercoccus faecium 2041, at most 0.06 µg/mL; in experiment [12], 0.125 µg/mL (≈ 0.0724 µM); against Escherichia coli EC14, above 64 µg/mL; in experiment [13], 0.5 µg/mL (≈ 0.289 µM); in [14] it was 2 µg/mL (≈ 1.16 µM). Further, the values for the MIC in experiment [15] and in experiment [16] were 16 µg/mL (≈ 9.26 µM) and at most 0.06 µg/mL, respectively. For the same molecule, the “mean geometric MIC, Vancomycin Resistant Strains” value in experiment [17] is 16 µg/mL. Further, the “mean geometric MIC, Vancomycin Sensitive Strains” value in experiment [18] came to 0.76 µg/mL.
For `CNC(CC(C)C)C(=O)NC1C(=O)NC(CC(N)=O)C(=O)NC2C(=O)NC3C(=O)NC(C(=O)NC(C(=O)O)c4cc(O)cc(O)c4-c4cc3ccc4O)C(OC3CC(C)(N)C(O)C(C)O3)c3ccc(c(Cl)c3)Oc3cc2cc(c3OC2OC(CO)C(O)C(O)C2OC2CC(C)(NCCCCCCCCOc3ccccc3)C(O)C(C)O2)Oc2ccc(cc2Cl)C1O` (centres unmarked) [Compound 195], the MIC in experiment [19] is 2 µg/mL (≈ 1.11 µM); in [1] it was 1 µg/mL (≈ 0.557 µM); in experiment [2] it was at most 0.06 µg/mL; in the experiment with Entercoccus faecium 276 it was 0.25 µg/mL (≈ 0.139 µM); in experiment [3], 0.5 µg/mL (≈ 0.278 µM); in experiment [4] it was 1 µg/mL (≈ 0.557 µM). Moreover, the MIC in [5] is 1 µg/mL (≈ 0.557 µM); in experiment [6], 0.5 µg/mL (≈ 0.278 µM); in [7], at most 0.06 µg/mL; in experiment [8], 0.5 µg/mL (≈ 0.278 µM); in [9], 2 µg/mL (≈ 1.11 µM); in experiment [10] it was 0.5 µg/mL (≈ 0.278 µM). In addition, the MIC in [11] is at most 0.06 µg/mL; against Entercoccus faecium 180 it was 0.5 µg/mL (≈ 0.278 µM); against Entercoccus faecium 2041, at most 0.06 µg/mL; in experiment [12] it was 4 µg/mL (≈ 2.23 µM); in experiment [20], 32 µg/mL (≈ 17.8 µM); in [13], 0.25 µg/mL (≈ 0.139 µM). For the same molecule, the MIC in experiment [14] was 1 µg/mL (≈ 0.557 µM); in experiment [15], 4 µg/mL (≈ 2.23 µM); in experiment [16] it was at most 0.06 µg/mL. Besides, in [17], the “mean geometric MIC, Vancomycin Resistant Strains” value stood at 2.0 µg/mL. Besides, the “mean geometric MIC, Vancomycin Sensitive Strains” value in [18] was found to be 0.042 µg/mL.
For the molecule `CNC(CC(C)C)C(=O)NC1C(=O)NC(CC(N)=O)C(=O)NC2C(=O)NC3C(=O)NC(C(=O)NC(C(=O)O)c4cc(O)cc(O)c4-c4cc3ccc4O)C(OC3CC(C)(N)C(O)C(C)O3)c3ccc(c(Cl)c3)Oc3cc2cc(c3OC2OC(CO)C(O)C(O)C2OC2CC(C)(NCCCCCCCCBr)C(O)C(C)O2)Oc2ccc(cc2Cl)C1O` (centres unmarked) [Compound 198], the MIC is 0.125 µg/mL (≈ 0.0701 µM) in [19]; 0.5 µg/mL (≈ 0.28 µM) in [1]; at most 0.06 µg/mL in [2]; 0.25 µg/mL (≈ 0.14 µM) against Entercoccus faecium 276; 1 µg/mL (≈ 0.561 µM) in experiment [3]; 0.125 µg/mL (≈ 0.0701 µM) in experiment [4]. For the same molecule, the MIC was 0.125 µg/mL (≈ 0.0701 µM) in experiment [5]; at most 0.06 µg/mL in experiment [6]; at most 0.06 µg/mL in experiment [7]; 0.5 µg/mL (≈ 0.28 µM) in experiment [8]; 0.5 µg/mL (≈ 0.28 µM) in experiment [9]; 0.125 µg/mL (≈ 0.0701 µM) in experiment [10]. For the same molecule, the MIC in experiment [11] was at most 0.06 µg/mL; against Entercoccus faecium 180 it was at most 0.06 µg/mL; against Entercoccus faecium 2041 it was at most 0.06 µg/mL; in experiment [12], 1 µg/mL (≈ 0.561 µM); in experiment [20], 32 µg/mL (≈ 17.9 µM); in experiment [13], 0.25 µg/mL (≈ 0.14 µM). For the same molecule, the MIC in [14] was 0.5 µg/mL (≈ 0.28 µM); in experiment [15], 1 µg/mL (≈ 0.561 µM); in experiment [16], at most 0.06 µg/mL. For the same molecule, the “mean geometric MIC, Vancomycin Resistant Strains” value in experiment [17] is 3.4 µg/mL. Further, the “mean geometric MIC, Vancomycin Sensitive Strains” value in experiment [18] is 0.062 µg/mL.
Regarding `CNC(CC(C)C)C(=O)NC1C(=O)NC(CC(N)=O)C(=O)NC2C(=O)NC3C(=O)NC(C(=O)NC(C(=O)O)c4cc(O)cc(O)c4-c4cc3ccc4O)C(OC3CC(C)(N)C(O)C(C)O3)c3ccc(c(Cl)c3)Oc3cc2cc(c3OC2OC(CO)C(O)C(O)C2OC2CC(C)(NCC3CCCCC3)C(O)C(C)O2)Oc2ccc(cc2Cl)C1O` (centres unmarked) [Compound 161], the MIC in experiment [19] is 0.125 µg/mL (≈ 0.074 µM); in experiment [1], 0.25 µg/mL (≈ 0.148 µM); in [2], at most 0.06 µg/mL; in the experiment with Entercoccus faecium 276, 0.125 µg/mL (≈ 0.074 µM); in experiment [3], 0.5 µg/mL (≈ 0.296 µM); in experiment [4] it was 1 µg/mL (≈ 0.592 µM). Moreover, the MIC was at most 0.06 µg/mL in experiment [5]; 0.5 µg/mL (≈ 0.296 µM) in experiment [6]; at most 0.06 µg/mL in [7]; 0.25 µg/mL (≈ 0.148 µM) in [8]; 0.5 µg/mL (≈ 0.296 µM) in experiment [9]; 0.5 µg/mL (≈ 0.296 µM) in experiment [10]. For the same molecule, the MIC in experiment [11] is at most 0.06 µg/mL; against Entercoccus faecium 180, 2 µg/mL (≈ 1.18 µM); in the experiment with Entercoccus faecium 2041, at most 0.06 µg/mL; in experiment [12], 8 µg/mL (≈ 4.74 µM); in the experiment with Escherichia coli EC14, above 64 µg/mL; in experiment [13], 1 µg/mL (≈ 0.592 µM). Besides, the MIC was 4 µg/mL (≈ 2.37 µM) in [14], 8 µg/mL (≈ 4.74 µM) in [15] and at most 0.06 µg/mL in [16]. Also, the “mean geometric MIC, Vancomycin Resistant Strains” value in experiment [17] was 23 µg/mL. The “mean geometric MIC, Vancomycin Sensitive Strains” value in [18] amounted to 0.44 µg/mL.
Consider `CNC(CC(C)C)C(=O)NC1C(=O)NC(CC(N)=O)C(=O)NC2C(=O)NC3C(=O)NC(C(=O)NC(C(=O)O)c4cc(O)cc(O)c4-c4cc3ccc4O)C(OC3CC(C)(N)C(O)C(C)O3)c3ccc(c(Cl)c3)Oc3cc2cc(c3OC2OC(CO)C(O)C(O)C2OC2CC(C)(NCc3c(C)c(C)c(C)c(C)c3C)C(O)C(C)O2)Oc2ccc(cc2Cl)C1O` (centres unmarked) [Compound 73], for which the MIC in experiment [1] is at most 0.06 µg/mL; in experiment [2], at most 0.06 µg/mL; in [8], 0.5 µg/mL (≈ 0.285 µM); in experiment [9], 0.5 µg/mL (≈ 0.285 µM); in [10], 1 µg/mL (≈ 0.571 µM); in experiment [11], at most 0.06 µg/mL. Besides, the MIC with Entercoccus faecium 180 is 0.5 µg/mL (≈ 0.285 µM); in experiment [12], 2 µg/mL (≈ 1.14 µM); against Escherichia coli EC14, above 64 µg/mL; in experiment [14], 0.5 µg/mL (≈ 0.285 µM); in [15] it was 2 µg/mL (≈ 1.14 µM); in [16] it was at most 0.06 µg/mL. The “mean geometric MIC, Vancomycin Resistant Strains” value in [17] was determined as 11 µg/mL.

The values above are taken from US5840684A, “Glycopeptide antibiotic derivatives” (Eli Lilly and Company, priority 1995, dated 1998).
